Earlier results as cited in US12180499B2, “Compositions and methods for impeding transcription of expanded microsatellite repeats” (University of Florida Research Foundation, Inc., priority 2016, dated 2024).
Starred links: 1 amine or outer side, 2 acyl side, 3 side chain; linkers in the order of their positions; H or OH if unused. Positions of bridges follow the written chain, without caps; N, C: chain ends. Non-standard residues stand in square brackets, D forms with d. Residues, ends and D or L forms follow the SMILES beside them. Chains are numbered I, II in the order given. Actinocin(9to1) = Cc1c2oc3c(C)ccc(C(=O)[*:1])c3nc-2c(C(=O)[*:2])c(N)c1=O; NMeV = CN[C@H](C(=O)O)C(C)C; Sar = CNCC(=O)O

Tested on: expanded CTG repeats
Details: low nanomolar doses; cited from earlier work

Cc1c2oc3c(C)ccc(C(=O)N[C@@H]4C(=O)N[C@H](C(C)C)C(=O)N5CCC[C@H]5C(=O)N(C)CC(=O)N(C)[C@@H](C(C)C)C(=O)O[C@@H]4C)c3nc-2c(C(=O)N[C@@H]2C(=O)N[C@H](C(C)C)C(=O)N3CCC[C@H]3C(=O)N(C)CC(=O)N(C)[C@@H](C(C)C)C(=O)O[C@@H]2C)c(N)c1=O [actinomycin D] (I: T[dV]P[Sar][NMeV] / II: T[dV]P[Sar][NMeV]; ester I:1-I:C, II:1-II:C; linker I:N-II:N via Actinocin(9to1))
transcription of expanded CTG repeats: preferentially impede transcription of expanded CTG repeats
